Measured values from ChEMBL document CHEMBL5604062, “ASAP - ZIKV NS2B-NS3 protease fluorescence dose response” (2024).
Several values for one entry are separate records, joined by “and”; a condition that tells them apart may be missing. Equal entries are not always repeated.

Biological target: Nonstructural protein 3 (Zika virus, UniProt A0A024AXB9)
Assay: Functional biochemical assay to identify treatments for viral infectious disease that targets Zika NS2B-NS3 protease. Utilizing a direct enzyme activity measurement method, reading the fluorescence intensity is used to characterize the relative potency of inhibitors as IC50.
Set-up: species or system PRVABC59

Nonstructural protein 3, sequence (A0A024AXB9 whole entry): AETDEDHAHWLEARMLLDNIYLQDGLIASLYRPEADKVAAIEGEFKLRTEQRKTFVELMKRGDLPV

IC50 | SMILES
> 198 µM | O=C(/C=C/c1ccccc1)C(=O)N1CCOCC1
73.3 µM and 80.1 µM | CCCCCC(=O)N[C@H](C(=O)NCc1cccc(CN)c1)c1ccc(OCc2ccccc2)cc1
> 99.5 µM | CCCCCC(=O)N[C@H](C(=O)NCc1ccc(NC(=N)N)cc1)c1ccc(OCc2ccccc2)cc1
> 99.5 µM | NC(=O)c1cccc(NC(=O)[C@@H](NC(=O)c2ccc(Oc3ccc(C(F)(F)F)cc3)cc2)c2ccc(OCc3ccccc3)cc2)c1
> 99.5 µM | O=C(Nc1ccc2c(c1)B(O)OC2)c1cccc(OCc2c(Cl)cccc2Cl)c1
> 99.5 µM | CCCCCC(=O)N[C@H](C(=O)N1CCC(CN)CC1)c1ccc(OCc2ccccc2)cc1
> 99.5 µM | CC1(C)OB(c2ccc(Cl)cc2CNC2CCCCC2)OC1(C)C
> 99.5 µM | O=C(/C=C/c1ccc(N2CCNCC2)cc1)C(=O)N1CCOCC1
81 µM | CCCC[C@H](N)C(=O)N[C@H](C(=O)NCc1ccc(C(N)=O)cc1)c1ccc(OCc2ccccc2)cc1
> 99.5 µM | c1ccc2c(CN3CC[C@H](c4c[nH]c5ccccc45)C3)c[nH]c2c1
> 99.5 µM | COc1cc(Cc2ccnc(N3CCNCC3)c2)nc(N2CCNCC2)n1
> 99.5 µM | Nc1ccc(/C=C/C(=O)C(=O)N2CCN(CCc3ccccc3)CC2)cc1
> 99.5 µM | CCCC[C@H](NC(C)=O)C(=O)N[C@H](C(=O)NCc1ccc(CN)cc1)c1ccccc1
> 99.5 µM | CCn1ccnc(N2CC[C@H](c3cccnc3)C2)c1=O
> 99.5 µM | CCn1ccnc(N2C[C@@H](O)[C@H](c3c[nH]c4ccccc34)C2)c1=O
> 99.5 µM | c1cc(CN2CCC(c3c[nH]c4ncccc34)CC2)c2[nH]ccc2c1
> 99.5 µM | O=C(O)c1cccc(NC(=O)c2cccc(OCc3c(Cl)cccc3Cl)c2)c1
> 99.5 µM | CCCC[C@H](NC(=O)OC(C)(C)C)C(=O)N[C@H](C(=O)NCc1ccc(C(N)=O)cc1)c1ccc(OCc2ccccc2)cc1
> 99.5 µM | CCn1ccnc(N2CC[C@@H](C(=O)NC)C2)c1=O
11.6 µM | NCc1cccc(NC(=O)[C@@H](NC(=O)OCc2ccccc2)c2ccc(OCc3ccccc3)cc2)c1
> 99.5 µM | O=C(c1cc(Cl)ccc1NS(=O)(=O)c1ccc(Oc2ccccc2Cl)cc1)N1CCCC1
> 99.5 µM | COC(=O)c1cncc(OCc2cc(OC)nc(N3CCNCC3)n2)c1

IC50 | SMILES
> 99.5 µM | CCn1ccnc(N2CCC(c3c[nH]c4ccccc34)CC2)c1=O
> 198 µM | CNC(=O)C(=O)/C=C/c1ccccc1C
> 99.5 µM | COC(=O)c1csc2cc(C(=O)N3CCCc4cc(CCN)ccc43)[nH]c12
36.7 µM | N=C(N)NCCc1ccc(NC(=O)C(=O)/C=C/c2ccc(N)cc2)cc1
> 99.5 µM | CCn1ccnc(N2CC[C@H](c3cccc(C#N)c3)C2)c1=O
> 198 µM | O=C(/C=C/c1ccccc1CN1CCCCC1)C(=O)N1CCOCC1
> 99.5 µM | CCn1ccnc(N2CC[C@H](c3ccc(OC)nc3)C2)c1=O
> 99.5 µM | CNC(=O)c1cc(Cl)ccc1NS(=O)(=O)c1ccc(Oc2ccccc2Cl)cc1
> 99.5 µM | CCn1ccnc(N2CC[C@H](c3ccncc3)C2)c1=O
34.3 µM | CC(C)CNC(=O)c1cc(Cl)ccc1NS(=O)(=O)c1ccc(Oc2ccccc2Cl)cc1
> 99.5 µM | c1ccc2c(CN3CCC[C@H](c4c[nH]c5ccccc45)C3)c[nH]c2c1
> 99.5 µM | CCCC[C@H](NC(C)=O)C(=O)N[C@H](C(=O)Nc1ccc(C(N)=O)cc1)c1ccc(OCc2ccccc2)cc1
> 99.5 µM | CC(C)(CO)NC(=O)c1cc(Cl)cc(NC(=O)c2cc(Cl)ccc2O)c1
25.2 µM | c1ccc2c(CN3CCC(c4c[nH]c5cccnc45)CC3)c[nH]c2c1
> 99.5 µM | Cc1nc([C@H]2CCCNC2)[nH]c1C(=O)Nc1ccccn1
> 99.5 µM | CCn1ccnc(N2CC[C@H](C(C)(C)C)C2)c1=O
> 99.5 µM | CC1(C)OB(c2cccc(F)c2CNC2CCCC2)OC1(C)C
> 99.5 µM | CC(C)Cn1cccc(C(=O)Nc2ccnc3ccccc23)c1=O
> 99.5 µM | NS(=O)(=O)c1nc(C(=O)N2CCc3c(CO)cccc32)n2ccccc12
> 99.5 µM | O=C(Nc1cccc(N2CCNCC2)c1)c1cccc2ncccc12
> 100 µM | O=C(Nc1ccc(F)nc1)Oc1ccccc1

The next lines start with the molecule.

SMILES | IC50
O=C1c2c(O)ccc([N+](=O)[O-])c2C(=O)c2c([N+](=O)[O-])ccc(O)c21 | 57.1 µM
CNC(=O)C(=O)/C=C/c1ccccc1 | > 198 µM
O=C(Cn1sc2ccccc2c1=O)Nc1cccc(OCc2cn(CC(=O)Nc3ccccc3Oc3ccccc3)nn2)c1 | 2.06 µM
O=C(C(=O)N1CCOCC1)c1c[nH]c2ccccc12 | > 99.5 µM
COc1ccc(S(=O)(=O)n2nc(OC(=O)c3cccc(-c4ccccc4Cl)c3)cc2N)cc1 | 0.183 µM
COc1ccc(S(=O)(=O)Nc2ccc(C(=O)Nc3nc4ccccc4s3)cc2)cc1 | > 99.5 µM
CNC(=O)c1cc(Cl)ccc1NS(=O)(=O)c1cccc(Oc2ccccc2)c1 | > 99.5 µM
CN(C)c1ccc(/C=C/C(=O)C(=O)N2CCOCC2)cc1 | 83.2 µM
O=C(/C=C/c1ccccc1)C(=O)N1CCN(CCc2ccccc2)CC1 | 44.9 µM
COc1cc(COc2cccnc2F)nc(N2CCNCC2)n1 | > 99.5 µM
CNC(=O)c1cc(C#N)ccc1NS(=O)(=O)c1ccc(Oc2ccccc2Cl)cc1 | > 99.5 µM
NC(=O)c1cn(C[C@H]2CCCN2c2ccnc3ccccc23)nn1 | > 99.5 µM
COc1cnccc1NC(=O)c1cccn(CC(C)C)c1=O | > 99.5 µM
NCc1ccc(C[C@H](NC(=O)c2ccccc2)C(=O)N2CCCCC2)cc1 | > 99.5 µM
CCn1ccnc(N2CC[C@H](c3ccn[nH]3)C2)c1=O | > 99.5 µM
CCCCCC(=O)N[C@H](C(=O)NCc1cccc(CN)c1)C1CCCCC1 | > 99.5 µM
NC(=O)c1ccccc1NS(=O)(=O)c1ccc(Oc2ccccc2Cl)cc1 | > 99.5 µM
CC(C)Nc1nc2ccc(C(=O)Nc3ccc4cn[nH]c4n3)cc2[nH]1 | > 99.5 µM
N=C(N)NCCc1ccccc1B(O)O | > 100 µM
N=C(N)NCCc1ccc(OC(=O)Nc2ccccc2)cc1 | > 100 µM
Cc1cc(NS(=O)(=O)c2ccc(Oc3ccccc3Cl)cc2)c(C(=O)NCC(F)(F)F)cc1F | 72.3 µM
COc1cc(C(=O)Nc2cnc3ccccc3c2)nc(N2CCNCC2)n1 | > 99.5 µM
CC(C)(CO)CN1CC[C@H](c2c[nH]c3ccccc23)C1 | > 99.5 µM

SMILES | IC50
COc1cc(Cc2c(-c3ccc(F)cc3)noc2C)nc(N2CCNCC2)n1 | 70.4 µM
CC(C)Nc1nc2ccc(C(=O)Nc3nnnn3-c3ccccn3)cc2[nH]1 | > 99.5 µM
CCn1ccnc(N2CC[C@@H](CC(N)=O)C2)c1=O | > 99.5 µM
N=C(N)Nc1ccc(NC(=O)Oc2ccccc2)cc1 | > 100 µM
CC(C)(C)OC(=O)N[C@H](C(=O)Nc1cccc(CN)c1)c1ccc(OCc2ccccc2)cc1 | > 99.5 µM
COc1cc(COc2cncc3ccccc23)nc(N2CCNCC2)n1 | > 99.5 µM
O=S(=O)(Nc1ccc(Cl)cc1)c1ccc(Oc2ccccc2Cl)cc1 | > 99.5 µM
CN(C)Cc1ccc(C(=O)Nc2cc(Cl)cc(C(=O)NC(C)(C)CO)c2)[nH]1 | > 99.5 µM
CCn1ccnc(N2CC[C@H](c3c[nH]c4ccccc34)C2)c1=O | > 99.5 µM
N=C(N)Nc1ccc(OC(=O)Nc2ccccc2)cc1 | > 100 µM
O=C(NCC1CC1)c1cc(Cl)ccc1NS(=O)(=O)c1ccc(Oc2ccccc2Cl)cc1 | 76.3 µM
NCc1ccc(/C=C/C(=O)C(=O)N2CCOCC2)cc1 | 79.4 µM
CCn1ccnc(N2CC[C@H](c3ccc(F)cc3)C2)c1=O | > 99.5 µM
COc1cc(Cc2ccc3[nH]ncc3c2)nc(N2CCNCC2)n1 | > 99.5 µM
CCn1ccnc(N2CC[C@H](C3CCOCC3)C2)c1=O | > 99.5 µM
N=C(N)NCCc1ccc(NC(=O)Oc2ccccc2)cc1 | 87.4 µM and 21.5 µM
COc1ccc2nc(C(F)(F)F)nc(N3CCN(c4ccc(N)nc4)CC3)c2c1 | > 99.5 µM
O[C@@H]1CNC[C@H]1c1c[nH]c2ccccc12 | > 99.5 µM
C[C@@H](Cc1c[nH]c2ccccc12)N1CC[C@H](c2c[nH]c3ccccc23)C1 | > 99.5 µM
CS(=O)(=O)c1ccc(N2CCNCC2)cc1NC(=O)c1cccc2ncccc12 | > 99.5 µM
CCn1ccnc(N2CC[C@H](C#N)C2)c1=O | > 99.5 µM
CCn1ccnc(N2CC[C@@H](CO)C2)c1=O | > 99.5 µM
N[C@H]1CCN(c2cccc(CNC(=O)c3ccc4[nH]c(=O)[nH]c4c3F)n2)C1 | > 99.5 µM

SMILES | IC50
CCn1ccnc(N2CC[C@@H](Cc3ccncc3)C2)c1=O | > 99.5 µM
N=C(N)NCCc1ccc(NC(=O)Cc2ccccc2)cc1 | > 198 µM
CCn1ccnc(N2CC[C@@H](CC#N)C2)c1=O | > 99.5 µM
CCCC[C@H](NC(C)=O)C(=O)N[C@H](C(=O)NCc1ccc(CN)cc1)c1ccc(OCc2ccccc2)cc1 | 60.4 µM
O=C(Cn1ccc2cccnc21)N1CC[C@H](c2c[nH]c3ccccc23)C1 | > 99.5 µM
CC(C)(C)OC(=O)N[C@H](C(=O)Nc1ccc(CN)cc1)c1ccc(OCc2ccccc2)cc1 | > 99.5 µM
CN(C)Cc1cccc(C(=O)Nc2cc(Cl)cc(C(=O)NC(C)(C)CO)c2)c1 | > 99.5 µM
N=C(N)NCCc1cccc(B(O)O)c1 | > 100 µM
N=C(N)NCc1ccc(NC(=O)Oc2ccccc2)cc1 | > 100 µM
N=C(N)NCc1ccc(OC(=O)Nc2ccccc2)cc1 | > 100 µM
N=C(N)NCCc1ccc(NC(=O)C(=O)c2ccccc2)cc1 | > 198 µM
c1ccc2c([C@H]3CCN(C[C@H]4CCOC4)C3)c[nH]c2c1 | > 99.5 µM
c1ccc2c([C@H]3CCN(CC[C@H]4CCCO4)C3)c[nH]c2c1 | > 99.5 µM
c1ccc2c([C@H]3CCN(CCC4CCOCC4)C3)c[nH]c2c1 | > 99.5 µM
NCc1ccc(NC(=O)[C@@H](NC(=O)OCc2ccccc2)c2ccc(OCc3ccccc3)cc2)cc1 | > 99.5 µM
c1ccc2c(CN3CCC(c4c[nH]c5ncccc45)CC3)c[nH]c2c1 | 33.9 µM
CC[C@H]1CCN(c2nccn(CC)c2=O)C1 | > 99.5 µM
O=C(O)c1cc(Cl)ccc1NS(=O)(=O)c1ccc(Oc2ccccc2Cl)cc1 | 35.1 µM
N=C(N)NCCc1ccc(NC(=O)c2ccccc2)cc1 | > 198 µM
CCn1ccnc(N2CC[C@H](c3ccc(C#N)cc3)C2)c1=O | > 99.5 µM
O=C1NCc2ccccc2C12CCN(Cc1cc3ccc(F)cc3[nH]1)CC2 | > 99.5 µM
COc1ccc(S(=O)(=O)n2nc(OC(=O)c3ccccc3)cc2N)cc1 | 1.16 µM
